Reference: US20040024024A1, “Aromatic sulfone hydroxamates and their use as protease inhibitors” (priority 2001, published 2004)

Assays:
Assay in all cases: In vitro MMP inhibition, Ki determination (fluorogenic substrate II)
Format in all cases: biochemical
Human recombinant MMP-13 = biological target: T1, Human recombinant MMP-13 (Homo sapiens, UniProt P45452)
T1 construct: made in house; host or cells: baculovirus / insect cells
Summary of the method: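 Baculovirus-expressed proenzyme, APMA-activated; 4 μM fluorogenic MCA/Dpa peptide substrate (II), at or below Km, in Tris buffer pH 7.5 with CaCl2, 1 hr at room temperature. Fluorescence at 330/420 nm; Ki from non-linear regression with Morrison's equation, not corrected for substrate.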

Human recombinant MMP-9 = biological target: T2, Human recombinant MMP-9 (Homo sapiens, UniProt P14780)
T2 construct: made in house; host or cells: MMP-9-transfected HT1080 cells (spent media)
T2 sequence (P14780 107-707 limits assumed): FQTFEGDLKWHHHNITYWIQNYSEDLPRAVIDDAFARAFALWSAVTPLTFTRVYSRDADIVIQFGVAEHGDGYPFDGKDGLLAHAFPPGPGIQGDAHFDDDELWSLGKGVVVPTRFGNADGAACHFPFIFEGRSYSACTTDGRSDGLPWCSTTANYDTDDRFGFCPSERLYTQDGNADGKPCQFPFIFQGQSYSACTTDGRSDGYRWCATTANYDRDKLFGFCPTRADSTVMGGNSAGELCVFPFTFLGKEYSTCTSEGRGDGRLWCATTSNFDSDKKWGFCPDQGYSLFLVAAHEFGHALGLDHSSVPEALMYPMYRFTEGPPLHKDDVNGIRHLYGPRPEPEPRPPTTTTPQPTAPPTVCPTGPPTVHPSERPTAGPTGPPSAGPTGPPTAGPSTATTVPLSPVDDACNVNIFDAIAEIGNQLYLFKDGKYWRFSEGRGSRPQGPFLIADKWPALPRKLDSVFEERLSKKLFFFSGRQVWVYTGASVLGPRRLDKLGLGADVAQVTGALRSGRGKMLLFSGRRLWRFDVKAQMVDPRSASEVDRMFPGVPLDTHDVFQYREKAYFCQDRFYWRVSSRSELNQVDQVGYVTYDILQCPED
Summary of the method: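 MMP-9 proenzyme purified from transfected HT1080 cell media, activated with APMA, trypsin or recombinant MMP-3; hydroxamates diluted in pH 7.5 Tris/NaCl/CaCl2 buffer. Cleavage of 4 μM MCA/Dpa substrate II followed by fluorescence (ex 330/em 420 nm), 1 h at room temperature. Ki from Morrison-equation fit, substrate at/below Km, uncorrected.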

Human recombinant MMP-1 = biological target: T3, Human recombinant MMP-1 (Homo sapiens, UniProt P03956)
T3 construct: made in house; host or cells: MMP-1-transfected HT-1080 cells (spent media)
T3 sequence (P03956 100-469): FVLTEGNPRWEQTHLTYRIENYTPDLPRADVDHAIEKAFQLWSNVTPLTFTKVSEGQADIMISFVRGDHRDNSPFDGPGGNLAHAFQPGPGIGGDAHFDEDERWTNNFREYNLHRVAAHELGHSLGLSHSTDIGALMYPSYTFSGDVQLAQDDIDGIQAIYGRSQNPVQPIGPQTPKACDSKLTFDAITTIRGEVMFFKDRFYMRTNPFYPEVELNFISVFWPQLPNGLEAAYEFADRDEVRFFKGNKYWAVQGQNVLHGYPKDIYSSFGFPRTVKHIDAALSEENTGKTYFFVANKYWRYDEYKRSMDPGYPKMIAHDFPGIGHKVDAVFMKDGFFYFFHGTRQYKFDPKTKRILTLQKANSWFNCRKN
Summary of the method: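 Activated human recombinant MMP-1 (APMA- or trypsin-activated; proenzyme from transfected HT-1080 cells) incubated 1 hr at room temperature with 4 μM MCA/Dpa fluorogenic substrate II at or below Km in Tris buffer pH 7.5 with CaCl2. Fluorescence ex 330/em 420 nm; Ki from Morrison-equation non-linear regression, uncorrected for substrate.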

[1] = substrate (II) 4 μM, 1 hr room temperature, apparent Ki, values in parenthesis

Row | SMILES | Ki (Human recombinant MMP-13; value in parenthesis) [nM] | Ki (Human recombinant MMP-9; value in parenthesis) [nM] | Ki (Human recombinant MMP-1; value in parenthesis) [nM] | Ki (Human recombinant MMP-13; value in parentheses) [nM] | Ki (Human recombinant MMP-9; value in parentheses) [nM] | Ki (Human recombinant MMP-1; value in parentheses) [nM] | also measured
1 | COCCN1CCC(C(=O)NO)(S(=O)(=O)c2ccc(OCCc3cccc(-c4ccccc4)c3)cc2)CC1 [Example 45] | – | – | – | – | – | – | Ki (Human recombinant MMP-13; [1]): 0.62 nM; Ki (Human recombinant MMP-9; [1]): 499 nM; Ki (Human recombinant MMP-1; [1]): > 10000 nM
2 | COCCN1CCC(C(=O)NO)(S(=O)(=O)c2ccc(OCCCc3cccc(-c4ccc(Cl)cc4)c3)cc2)CC1 [Example 50] | – | – | – | – | – | – | Ki (Human recombinant MMP-13; [1]): 0.6 nM; Ki (Human recombinant MMP-9; [1]): 304 nM; Ki (Human recombinant MMP-1; [1]): > 10000 nM
3 | COCCN1CCC(C(=O)NO)(S(=O)(=O)c2ccc(OCCCc3cccc(-c4ccc(F)c(F)c4)c3)cc2)CC1 [Example 52] | – | – | – | – | – | – | Ki (Human recombinant MMP-13; [1]): 0.81 nM; Ki (Human recombinant MMP-9; [1]): 617 nM; Ki (Human recombinant MMP-1; [1]): > 10000 nM
4 | O=C(NO)C1(S(=O)(=O)c2ccc(OCCCc3nc(-c4ccc(OC(F)(F)F)cc4)no3)cc2)CCN(Cc2ccccc2)CC1 [Example 93] | 9.29 | 1120 | > 10000 | – | – | – | –
5 | CC(C)c1ccc(-c2cccc(CCOc3ccc(S(=O)(=O)C4(C(=O)NO)CCOCC4)cc3)c2)cc1 [Example 109] | 93.1 | > 10000 | > 10000 | – | – | – | –
6 | O=C(NO)C1(S(=O)(=O)c2ccc(OCCc3cccc(-c4cc(F)cc(F)c4)c3)cc2)CCOCC1 [Example 110] | 11.4 | 4340 | > 10000 | – | – | – | –
7 | O=C(NO)C1(S(=O)(=O)c2ccc(OCCc3cccc(-c4cccc(F)c4)c3)cc2)CCOCC1 [Example 111] | 6.39 | 2680 | > 10000 | – | – | – | –
8 | O=C(NO)C1(S(=O)(=O)c2ccc(OCCc3cccc(-c4ccc(OC(F)(F)F)cc4)c3)cc2)CCOCC1 [Example 112] | 51.2 | 8850 | > 10000 | – | – | – | –
9 | O=C(NO)C1(S(=O)(=O)c2ccc(OCCc3cccc(-c4ccccc4Cl)c3)cc2)CCOCC1 [Example 114] | 4.2 | 4870 | > 10000 | – | – | – | –
10 | Cc1ccccc1-c1cccc(CCOc2ccc(S(=O)(=O)C3(C(=O)NO)CCOCC3)cc2)c1 [Example 116] | 5.1 | 5550 | > 10000 | – | – | – | –
11 | Cc1ccc(-c2cccc(CCOc3ccc(S(=O)(=O)C4(C(=O)NO)CCOCC4)cc3)c2)cc1C [Example 117] | 21 | 9910 | > 10000 | – | – | – | –
12 | Cc1cc(-c2cccc(CCOc3ccc(S(=O)(=O)C4(C(=O)NO)CCOCC4)cc3)c2)ccc1Cl [Example 118] | 18.8 | > 10000 | > 10000 | – | – | – | –
13 | COc1ccc(-c2cccc(CCOc3ccc(S(=O)(=O)C4(C(=O)NO)CCOCC4)cc3)c2)cc1C [Example 119] | 31.4 | 3950 | > 10000 | – | – | – | –
14 | O=C(NO)C1(S(=O)(=O)c2ccc(OCCc3cccc(-c4ccc(Cl)c(Cl)c4)c3)cc2)CCOCC1 [Example 121] | 26.9 | > 10000 | > 10000 | – | – | – | –
15 | O=C(NO)C1(S(=O)(=O)c2ccc(OCCc3cccc(-c4ccc(Cl)cc4Cl)c3)cc2)CCOCC1 [Example 124] | 20.1 | > 10000 | > 10000 | – | – | – | –
16 | O=C(NO)C1(S(=O)(=O)c2ccc(OCCc3cccc(-c4cc(Cl)cc(Cl)c4)c3)cc2)CCOCC1 [Example 126] | 81.3 | > 10000 | > 10000 | – | – | – | –
17 | COCCN1CCC(C(=O)NO)(S(=O)(=O)c2ccc(OCCCc3nc(-c4ccc(CC(C)C)cc4C)no3)cc2)CC1 [Example 128] | 13.8 | 3550 | > 10000 | – | – | – | –
18 | NC(=O)c1cccc(-c2noc(CCCOc3ccc(S(=O)(=O)C4(C(=O)NO)CCN(C5CC5)CC4)cc3)n2)c1 [Example 129] | 0.27 | 110 | > 10000 | – | – | – | –
19 | COCCN1CCC(C(=O)NO)(S(=O)(=O)c2ccc(OCCCc3nc(-c4ccc(Br)cc4C)no3)cc2)CC1 [Example 135] | 0.761 | 457 | > 10000 | – | – | – | –
20 | O=C(NO)C1(S(=O)(=O)c2ccc(OCCCc3nc(C4CCCCC4)no3)cc2)CCN(C2CC2)CC1 [Example 137] | 0.976 | 604 | > 10000 | – | – | – | –
21 | Cc1cc(-c2cccc(CCCOc3ccc(S(=O)(=O)C4(C(=O)NO)CCOCC4)cc3)c2)ccc1Cl [Example 166] | 63.4 | 8690 | > 10000 | – | – | – | –
22 | Cc1cc(-c2cccc(CCCOc3ccc(S(=O)(=O)C4(C(=O)NO)CCOCC4)cc3)c2)ccc1F [Example 168] | 27.3 | 6500 | > 10000 | – | – | – | –

Second part, led by results:

Row | Ki (Human recombinant MMP-13; value in parenthesis) [nM] | Ki (Human recombinant MMP-9; value in parenthesis) [nM] | Ki (Human recombinant MMP-1; value in parenthesis) [nM] | Ki (Human recombinant MMP-13; value in parentheses) [nM] | Ki (Human recombinant MMP-9; value in parentheses) [nM] | Ki (Human recombinant MMP-1; value in parentheses) [nM] | SMILES | also measured
23 | 20.4 | 6500 | > 10000 | – | – | – | O=C(NO)C1(S(=O)(=O)c2ccc(OCCCc3cccc(-c4ccc(Cl)c(Cl)c4)c3)cc2)CCOCC1 [Example 169] | –
24 | 6.79 | 1500 | > 10000 | – | – | – | O=C(NO)C1(S(=O)(=O)c2ccc(OCCCc3cccc(-c4ccc(F)c(F)c4)c3)cc2)CCOCC1 [Example 170] | –
25 | 12.5 | 6600 | > 10000 | – | – | – | O=C(NO)C1(S(=O)(=O)c2ccc(OCCCc3cccc(-c4ccc(Cl)cc4Cl)c3)cc2)CCOCC1 [Example 171] | –
26 | 71.1 | 9440 | > 10000 | – | – | – | O=C(NO)C1(S(=O)(=O)c2ccc(OCCCc3cccc(-c4cc(Cl)cc(Cl)c4)c3)cc2)CCOCC1 [Example 172] | –
27 | 15.1 | 2510 | > 10000 | – | – | – | CCCCc1ccc(-c2noc(CCCOc3ccc(S(=O)(=O)C4(C(=O)NO)CCOCC4)cc3)n2)c(C)c1 [Example 183] | –
28 | 3.73 | 220 | > 10000 | – | – | – | COCCN1CCC(C(=O)NO)(S(=O)(=O)c2ccc(OCCCc3nc(-c4ccc(C5(c6ccccc6)CC5)cc4)no3)cc2)CC1 [Example 185] | –
29 | 3.09 | 59.5 | > 10000 | – | – | – | COCCN1CCC(C(=O)NO)(S(=O)(=O)c2ccc(OCCCc3nc(-c4cccc5ccccc45)no3)cc2)CC1 [Example 199] | –
30 | – | – | – | 4.65 | 2310 | > 10000 | O=C(NO)C1(S(=O)(=O)c2ccc(OCCCc3ccc(F)c(-c4ccccc4)c3)cc2)CCOCC1 [Example 504] | –
31 | – | – | – | 0.81 | 10.2 | 850 | CCCC(=O)CCCOc1ccc(S(=O)(=O)C2(C(=O)NO)CCOCC2)cc1 [Example 505] | –
32 | – | – | – | 0.23 | 11.4 | 1470 | CCCCC(=O)CCCOc1ccc(S(=O)(=O)C2(C(=O)NO)CCOCC2)cc1 [Example 506] | –
33 | – | – | – | 0.19 | 0.44 | 3590 | CCCCCCCOc1ccc(S(=O)(=O)C2(C(=O)NO)CCOCC2)cc1 [Example 507] | –
34 | – | – | – | 0.141 | 160 | 4850 | COCCN1CCC(C(=O)NO)(S(=O)(=O)c2ccc(OCCCc3cncc(-c4ccccc4)c3)cc2)CC1 [Example 508] | –
35 | – | – | – | 0.297 | 50.9 | > 10000 | COCCN1CCC(C(=O)NO)(S(=O)(=O)c2ccc(OCCCc3cccc(-c4cccnc4)c3)cc2)CC1 [Example 509] | –
36 | – | – | – | 0.25 | 39.8 | > 10000 | COCCN1CCC(C(=O)NO)(S(=O)(=O)c2ccc(OCCCc3cccc(-c4cccs4)c3)cc2)CC1 [Example 510] | –
37 | – | – | – | 1.36 | 38.5 | > 10000 | COCCN1CCC(C(=O)NO)(S(=O)(=O)c2ccc(OCCCc3cccc(-c4cccc(F)c4)c3)cc2)CC1 [Example 511] | –
38 | – | – | – | 1.07 | 25.7 | > 10000 | COCCN1CCC(C(=O)NO)(S(=O)(=O)c2ccc(OCCCc3cccc(-c4ccccc4F)c3)cc2)CC1 [Example 512] | –
39 | – | – | – | 0.98 | 255 | > 10000 | COCCN1CCC(C(=O)NO)(S(=O)(=O)c2ccc(OCCCc3cccc(-c4ccc(F)cc4F)c3)cc2)CC1 [Example 513] | –
40 | – | – | – | 0.28 | 224 | > 10000 | COCCN1CCC(C(=O)NO)(S(=O)(=O)c2ccc(OCCCc3cccc(-c4ccc(C#N)cc4)c3)cc2)CC1 [Example 514] | –
41 | – | – | – | 3.96 | 2070 | > 10000 | CCN1CCC(C(=O)NO)(S(=O)(=O)c2ccc(OCCCc3cccc(-c4ccc(Cl)cc4)c3)cc2)CC1 [Example 526] | –
42 | – | – | – | 0.044 | 30.4 | 5100 | Cc1ccc(NC(=O)CCCOc2ccc(S(=O)(=O)C3(C(=O)NO)CCOCC3)cc2)cc1I [Example 527] | –
43 | – | – | – | 2.57 | 238 | > 10000 | CCC(=O)c1cccc(CCCOc2ccc(S(=O)(=O)C3(C(=O)NO)CCOCC3)cc2)c1 [Example 528] | –
44 | – | – | – | 20.2 | 1870 | > 10000 | O=C(NO)C1(S(=O)(=O)c2ccc(OCCCc3cccc(-c4ccc(O)cc4)c3)cc2)CCOCC1 [Example 529] | –
45 | – | – | – | 7.33 | 220 | > 10000 | O=C(NO)C1(S(=O)(=O)c2ccc(OCCCc3cccc(-c4cccc(O)c4)c3)cc2)CCOCC1 [Example 530] | –
